Here are results for eleven compounds from US4675390A, “2-deoxypentose derivatives” (Eli Lilly and Company, priority 1984, dated 1987).

In brackets after ≈: the same amount, converted by molar mass. Some results are limits rather than exact numbers.

Data set [1] relates to CCRF-CEM cell line. Kind of data set: growth inhibition of human leukemic cells. Type of data set: cell-based. The following applies: read-out: IC50 (concentration giving 50% growth inhibition).
For data set [2], the system named is spontaneously hypertensive rats (SHR). Kind of data set: blood pressure lowering in spontaneously hypertensive rats (tailcuff method). Type of data set: in vivo. The following applies: 5 mg/kg subcutaneous, 3-5 hours. An excerpt:
Certain of the compounds of this invention are also active in lowering the blood pressure of spontaneously hypertensive rats (SHR). For example, β-methyl 2-deoxy-3-phosphocholyl-5-n-hexadecyl-D-ribofuranoside, when administered subcutaneously to SHR at various dose levels, produced the hypotensive effects set forth in Table III below.
*measured by tailcuff method

Data set [3] has as its system X-5563, a plasma cell myeloma. Kind of data set: antitumor activity against transplanted X-5563 plasma cell myeloma in mice. Type of data set: in vivo. The following applies: daily for 10 days with 3 day delay. The source says:
Compounds according to formula II above are also active against transplanted tumors in mice. Table II which follows gives the results of testing α-methyl 2-deoxy-3-phosphocholyl-5-n-hexadecyl-D-ribofuranoside against X-5563, a plasma cell myeloma. In the table, column 1 gives the dosage levels, column 2 toxic deaths, column 3, the percent tumor growth inhibition and column 4, the dosage schedule or regimen. Ten mice were given each dosage ip and a group of 20 mice used as controls.

In the case of `CCCCCCCCCCCCCCCCO[C@H]1CC(O)O[C@@H]1COP(=O)([O-])OCC[N+](C)(C)C` (stereo partly drawn) [drawing 20 (R = H(OH), R^1 = OH(H)), 2-Deoxy-3-n-hexadecyl-5-phosphocholyl-D-ribose], the IC50 in data set [1] came to 13.2 µg/mL (≈ 25.2 µM).

In the case of `CCCCCCCCCCCCCCCCOC[C@H]1O[C@@H](OC)C[C@@H]1OP(=O)([O-])OCC[N+](C)(C)C` [drawing 19 (R = H, R^1 = MeO), β-methyl 2-deoxy-3-phosphocholyl-5-n-hexadecyl-D-ribofuranoside], in data set [1], the IC50 worked out at 6.2 µg/mL (≈ 11.5 µM). In data set [2], the “Heart Rate” value is “No effect”. Moreover, the Blood pressure effect in data set [2] (tailcuff method) is given as -20 mmHg.

On to `CCCCCCCCCCCCCCCCO[C@H]1C[C@@H](OC)O[C@@H]1COP(=O)([O-])OCC[N+](C)(C)C` [drawing 20 (R = MeO, R^1 = H), Methyl 2-deoxy-3-n-hexadecyl-5-phosphocholyl-D-ribofuranoside], for which the IC50 in data set [1] amounted to 5.2 µg/mL (≈ 9.67 µM).

In the case of `CCCCCCCCCCCCCCCCOC[C@H]1OC(O)C[C@@H]1OP(=O)([O-])OCC[N+](C)(C)C` (stereo partly drawn) [drawing 19 (R = H(OH), R^1 = OH(H)), 2-deoxy-3-phosphocholyl-5-n-hexadecyl-D-ribose], in data set [1], the IC50 was 6.4 µg/mL (≈ 12.2 µM).

`CCCCCCCCCCCCCCCCO[C@H]1CC(=O)O[C@@H]1COP(=O)([O-])OCC[N+](C)(C)C` [drawing 20 (R, R^1 = Carbonyl), 2-deoxy-3-n-hexadecyl-5-phosphocholyl-D-ribofuran-1-one]: the IC50 in data set [1] worked out at 6.2 µg/mL (≈ 11.9 µM).

As for `CCCCCCCCCCCCCCCCOC[C@H]1OCC[C@H]1OP(=O)([O-])OCC[N+](C)(C)C` [drawing 21 (R = H, R^1 = H), 1,2-dideoxy-3-phosphocholyl-5-n-hexadecyl-D-xylofuranose], the IC50 in data set [1] amounted to 6.2 µg/mL (≈ 12.2 µM).

Consider `CCCCCCCCCCCCCCCCOC[C@H]1O[C@H](OC)C[C@@H]1OP(=O)([O-])OCC[N+](C)(C)C` [drawing 19 (R = MeO, R^1 = H), α-methyl 2-deoxy-3-phosphocholyl-5-n-hexadecyl-D-ribofuranoside], for which, in data set [1], the IC50 is 2.3 µg/mL (≈ 4.28 µM). Moreover, in data set [3] (25 mg/kg ip), the “Percent inhibition of Tumor growth” value came to 37% and the Toxic deaths is given as 0/10. Further, in data set [3] (50 mg/kg ip), the “Percent inhibition of Tumor growth” value is recorded as 61% and the Toxic deaths is listed as 2/10.

On to `CCCCCCCCCCCCCCCCO[C@H]1CCO[C@@H]1COP(=O)([O-])OCC[N+](C)(C)C` [drawing 20 (R = H, R^1 = H), 1,2-Dideoxy-3-n-hexadecyl-5-phosphocholyl-D-ribofuranose], for which the IC50 in data set [1] was found to be 3.4 µg/mL (≈ 6.7 µM).

Turning to `CCCCCCCCCCCCCCCCOC[C@H]1OCC[C@@H]1OP(=O)([O-])OCC[N+](C)(C)C` [drawing 19 (R = H, R^1 = H), 1,2-dideoxy-3-phosphocholyl-5-n-hexadecyl-D-ribofuranose], in data set [1], the IC50 was found to be 3.7 µg/mL (≈ 7.29 µM).

On to `CCCCCCCCCCCCCCCCOC[C@H]1O[C@H](OC)C[C@H]1OP(=O)([O-])OCC[N+](C)(C)C` [drawing 21 (R = MeO, R^1 = H), α-Methyl 2-deoxy-3-phosphocholyl-5-n-hexadecyl-D-xylofuranoside], for which, in data set [1], the IC50 was 5.3 µg/mL (≈ 9.86 µM).

In the case of `CCCCCCCCCCCCCCCCO[C@H]1C[C@H](OC)O[C@@H]1COP(=O)([O-])OCC[N+](C)(C)C` [drawing 20 (R = H, R^1 = MeO), β-Methyl 2-deoxy-3-n-hexadecyl-5-phosphocholyl-D-ribofuranoside], in data set [1], the IC50 is below 2.1 µg/mL.
